Experimental data reported in paper PMC10817170, “Effect of an NHE3 inhibitor in combination with an NPT2b inhibitor on gastrointestinal phosphate absorption in Rodent models” (PLOS ONE, 2024).

Key:
NHE3 = test system: T1, NHE3; test: Sodium excretion in urine after oral NaH2PO4 bolus in mice; assay type: in vivo; conditions: sodium bolus plus 3 mg/kg po, urine 4 h, mean ± SEM
T1 construct: from tissue; host or cells: intestine of living C57Bl/6 mice
Experimental: The effect of LY3304000 on sodium and phosphate excretion in urine was also assessed in mice. A dosing solution of 3 mg/kg LY3304000 for a 10 mL/kg dose volume was formulated in 1% HEC. An NaH2PO4 dosing solution at a 690 mg/kg with a […] dosing volume was made in sterile water. Male C57Bl/6 mice were fasted for 4 hours with access to water and then orally dosed at 10 mL/kg with 1% HEC vehicle or 3 mg/kg LY3304000. Fifteen minutes later, mice were orally dosed with either sterile water or NaH2PO4 solution, and then immediately transferred to a mouse holder on a 96-well plate for spot urine collection. Urine samples were collected for 4 hours post sterile water or NaH2PO4 dose. Urinary sodium, creatinine, and phosphorus (as a measure of phosphate) were determined using a clinical biochemistry analyzer. The urinary sodium-to-creatinine ratio was calculated and compared between vehicle and LY3304000 treated groups.

[1] = test system: acute phosphate uptake into plasma; test: Acute radiolabeled phosphate uptake into plasma in rats; assay type: in vivo
Experimental: A dosing solution for a 10 mg/kg dose of LY3304000 using a 10 mL/kg dosing volume was made in 1% HEC vehicle. The subsequent dosing solutions for 3, 1, 0.3, 0.1, 0.03, 0.01, 0.003, and 0.001 mg/kg were prepared by serial dilutions with HEC. A Radiolabeled Phosphate Dosing Solution was made in a 16.25 mM Na2HPO4, 0.9% saline, pH 7.4, solution with the addition of about 2.5 μCi/mL radioactive phosphate (H3^33PO4, PerkinElmer) and filtered before dosing. Following 12-hour fasting with access to water, male SD rats were orally dosed at 10 mL/kg with either vehicle or varying doses of LY3304000. Fifteen minutes later, 2 mL of the Radiolabeled Phosphate Dosing Solution was dosed by oral gavage. This dose of phosphate was chosen because it approximates the rat equivalent to the amount of bioavailable phosphate in a human meal, 4 mg/kg phosphorus, or 320 mg phosphorus for an 80 kg person on a phosphate restricted diet. Fifteen minutes later, blood was collected by cardiac stick, and plasma was prepared. Radioactivity (dpm) in 50 μL plasma was measured by scintillation counting. To determine the total radioactivity dosed to each rat, the radioactivity in two 10-μL samples of the Radiolabeled Phosphate Dosing Solution was measured by scintillation counting. To calculate the total radioactivity recovered in plasma, it was assumed that total blood volume constitutes about 60% of the body weight and plasma constitutes about 55% of the total blood. The mole amount of phosphate uptake was calculated as the percentage of administered radiolabeled phosphate recovered in the plasma of vehicle or LY3304000 treated rats multiplied by total phosphate amount in the radiolabeled phosphate dosing solution. ED50 values were then determined with a 4-parameter logistic curve fitting model using GraphPad Prism. A 15-minute time point, post phosphate dosing, was chosen for collecting blood in the acute phosphate uptake studies in rats and mice (see below) to capture the initial rate of phosphate absorption. We wanted to avoid measurements at longer time points when plasma radiolabeled phosphate appears to be at a steady state.

Structure (SMILES): CN1Cc2c(Cl)cc(Cl)cc2[C@H](c2cccc(S(=O)(=O)NCCOCCOCCN/C(=N\C(N)=O)NCCCCN/C(=N/C(N)=O)NCCOCCOCCNS(=O)(=O)c3cccc([C@@H]4CN(C)Cc5c(Cl)cc(Cl)cc54)c3)c2)C1.Cl.Cl [LY3304000, (Z)-[[4-[[(Z)-N’-carbamoyl-N-[2-[2-[2-[[3-[(4S)-6,8-dichloro-2-methyl-3,4-dihydro-1H-isoquinolin-4-yl]phenyl]sulfonylamino]ethoxy]ethoxy]ethyl]carbamimidoyl]amino]butylamino]-[2-[2-[2-[[3-[(4S)-6,8-dichloro-2-methyl-3,4-dihydro-1H-isoquinolin-4-yl]phenyl]sulfonylamino]ethoxy]ethoxy]ethylamino]methylene]urea dihydrochloride]
- Urinary sodium-to-creatinine ratio (NHE3): 14.6 ± 1.7 mg/mg
- maximal inhibition of phosphate uptake [1]: 37%
- ED50 ([1]; Rattus norvegicus, po, 0.25 h, oral, plasma 15 min post 33P phosphate, read-out: ED50 (decrease of phosphate uptake)): 0.04 mg/kg
- Emax, Pi uptake ([1]; curve fit): 266.8 nmol
- ED50 (decrease of phosphate uptake) ([1]; oral, plasma 15 min post 33P phosphate): 0.041 mg/kg
- radiolabeled phosphate in plasma, maximal determined decrease ([1]; vehicle 416 nmoles): 264 nmol
